Test results published in patent US9957273B2, “5-substituted 7- [4-(2-pyridyl)phenylmethylamino] -3-isopropylpyrazolo4,3-D]pyrimidine derivatives, use thereof as medicaments, and pharmaceutical compositions” (USTAV EXPERIMENTALNI BOTANIKY AV CR, V.V.I., priority 2015, dated 2018).

Assays:
[1] = test system: CEM (human lymphoblastoid leukaemia); assay: MTT cytotoxicity assay, leukemic cell line CEM; type: cell-based; details: Homo sapiens, 72 h, three days
From the text: (§1) Cytotoxicity of the compounds is the major property determining their antileukemic efficacy in vivo. One of the parameters used, as the basis for cytotoxicity assays, is the metabolic activity of viable cells. For example, a microtiter assay, which uses (3-(4,5-dimethylthiazol-2-yl)-2,5-diphenyltetrazolium bromide (MTT), is widely used to quantitate cell proliferation and cytotoxicity. This assay is widely used in drug screening programs and in chemosensitivity testing. Because only metabolically active living cells reduce MTT to correspond purple formazan dye, these assays detect viable cells exclusively. The quantity of reduced MTT corresponds to the number of vital cells in the culture.
(§2) The compounds were assayed using the following leukemic cell lines: K562 (human chronic myelogenous leukaemia), HL60 (human promyelocytic leukaemia), CEM (human lymphoblastoid leukaemia), THP1 (human monocytic cell line), MV4; 11 (acute myelocytic leukemia). All cell lines were grown in RPMI medium supplemented with fetal bovine serum and L-glutamine and maintained at 37° C. in a humidified atmosphere with 5% CO2. For cytotoxicity assays, 2000-5000 cells were seeded into each well of 96 well plate, allowed to stabilize for at least 8 h and then tested compounds were added at various concentrations ranging from 100 to 0.01 μM in triplicates. After three days, MTT solution (5 mg/ml; Sigma, St. Louis, USA) was added to cells and medium was replaced with DMSO after five hours. The absorbance was measured at 620 nm by employing a microplate reader. MTT assays were repeated 3 times for each drug application and untreated cells were used as reference.

p53 = assay: Immunoblotting of apoptotic markers in HCT116 cells: p53; type: cell-based; details: 24 hours, FIG. 4
Experimental: Effect of novel compounds on apoptosis was confirmed by immunoblotting analysis of selected apoptotic proteins. For immunoblotting, cell were harvested, washed three times with ice-cold PBS and lysed in a buffer (50 mM Tris, pH 7.4, 250 mM NaCl, 5 mM EDTA, 50 mM NaF, 1 mM Na3VO4, 1% Nonidet P40) containing mixture of protease and phosphatase inhibitors (Sigma-Aldrich). 20 μg of total proteins were separated by SDS-polyacrylamide gel electrophoresis (SDS-PAGE) and transferred onto nitrocellulose membranes. Membranes were blocked in 5% milk and 0.1% Tween 20 in PBS and probed overnight with specific antibodies. Specific antibodies were purchased from SigmaAldrich (anti a-tubulin, clone DM1A), Santa Cruz Biotechnology (anti-Mcl-1, clone S-19; anti-PARP, clone F-2; anti-Mdm-2, clone SMP14; anti-Bcl-2), DAKO Cytomation Cell Signaling (anti-PUMA) or were a generous gift from Dr. B. Vojtesek (anti-p53, clone DO-1). All primary antibodies were diluted in PBS containing 5% powdered milk; 0.1% Tween 20. Peroxidase conjugated rabbit anti-mouse immunoglobulin or porcine anti-rabbit immunoglobulin antisera (DAKO) were used as the secondary antibodies and visualised with ECL reagents (GE-Healthcare Life Sciences).

CDK5/p35 = target: T1, CDK5/p35 (Homo sapiens, UniProt Q00535); assay: CDK5/p35 kinase inhibition (33P-ATP, histone H1); type: biochemical; details: 0.15 μM ATP
T1 construct: purchased ProQinase GmbH
Experimental: CDK2/Cyclin E kinase was produced in Sf9 insect cells via baculoviral infection and purified on a NiNTA column (Qiagen). […] CDK5/p35 was purchased from ProQinase GmbH.
The reactions were stopped by adding 5 μL of 3% aq H3PO4. Aliquots were spotted onto P-81 phosphocellulose (Whatman), washed 3× with 0.5% aq H3PO4 and finally air-dried.

[2] = test system: breast carcinoma cell line MCF7; assay: Cell cycle profile by BrdU/propidium iodide flow cytometry; type: cell-based; details: asynchronously growing MCF7, 24 h, FIG. 1
Experimental: Sub-confluent cells were treated with test compounds at different concentrations for 24 h. The cultures were pulse-labeled with […] 5-bromo-20-deoxyuridine (BrdU) for 30 min at 37° C. prior to harvesting. The cells were then washed in PBS, fixed with 70% ethanol, and denatured in 2 M HCl. Following neutralization, the cells were stained with anti-BrdU fluorescein-labeled antibodies, washed, stained with propidium iodide and analyzed by flow cytometry using a 488 nm laser

[3] = test system: caspases 3 and 7 in HCT116 cells; assay: Caspase-3/7 activity assay in HCT116 cells; type: cell-based; details: 24 h, FIG. 3
Experimental: Measurement of proapoptotic properties of new compounds was based on quantification of enzymatic activities of caspases-3/7. Activity of cellular caspase-3/7 was measured according to Carrasco et al., 2003, BioTechniques, 34(5): 1064-67. Briefly, the cells were incubated in a 96-well plate overnight. Next day, the compounds in appropriate concentrations were added and cells were incubated for 24 hours. After incubation, 3× caspase-3/7 assay buffer (150 mM HEPES pH 7.4, 450 mM NaCl, 150 mM KCl, 30 mM MgCl2, 1.2 mM EGTA, 1.5% Nonidet P40, 0.3% CHAPS, 30% sucrose, 30 mM DTT, 3 mM PMSF) with 150 μM Ac-DEVD-AMC as a substrate (Sigma-Aldrich) was added to the wells and plates were incubated at 37° C. […]. The caspase activity was measured using Fluoroskan Ascent microplate reader (Labsystems) at 346 nm/442 nm (excitation/emission).

[4] = test system: PLC/PRF/5 (liver hepatoma); assay: MTT cytotoxicity assay, solid cancer cell line PLC/PRF/5; type: cell-based; details: Homo sapiens, PLC-PRF-5, 72 h, three days
Experimental: as §2, with “following” for “following leukemic”, “G361 (malignant melanoma), MCF7 (breast adenocarcinoma), PLC/PRF/5 (liver hepatoma), PANC-1 (pancreatic carcinoma) and HCT116 (colon carcinoma).” for “K562 (human chronic myelogenous leukaemia), HL60 (human promyelocytic leukaemia), CEM (human lymphoblastoid leukaemia), THP1 (human monocytic cell line), MV4; 11 (acute myelocytic leukemia).”, “DMEM” for “RPMI”, “4000-10000” for “2000-5000”, “of a” for “of”, “16” for “8”

[5] = test system: K562 (human chronic myelogenous leukaemia); assay: MTT cytotoxicity assay, leukemic cell line K562; type: cell-based; details: Homo sapiens, K562, 72 h, three days
From the text: as §1, §2

T1 sequence (Q00535 whole entry): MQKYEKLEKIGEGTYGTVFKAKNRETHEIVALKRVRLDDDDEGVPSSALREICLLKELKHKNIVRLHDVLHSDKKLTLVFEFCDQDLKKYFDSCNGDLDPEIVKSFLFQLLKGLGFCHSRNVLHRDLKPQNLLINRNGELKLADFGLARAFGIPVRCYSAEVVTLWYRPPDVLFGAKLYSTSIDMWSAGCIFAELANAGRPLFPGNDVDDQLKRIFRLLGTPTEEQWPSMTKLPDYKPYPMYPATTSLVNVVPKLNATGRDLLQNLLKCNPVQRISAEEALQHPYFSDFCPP
T1 sequence (Q15078 whole entry partner): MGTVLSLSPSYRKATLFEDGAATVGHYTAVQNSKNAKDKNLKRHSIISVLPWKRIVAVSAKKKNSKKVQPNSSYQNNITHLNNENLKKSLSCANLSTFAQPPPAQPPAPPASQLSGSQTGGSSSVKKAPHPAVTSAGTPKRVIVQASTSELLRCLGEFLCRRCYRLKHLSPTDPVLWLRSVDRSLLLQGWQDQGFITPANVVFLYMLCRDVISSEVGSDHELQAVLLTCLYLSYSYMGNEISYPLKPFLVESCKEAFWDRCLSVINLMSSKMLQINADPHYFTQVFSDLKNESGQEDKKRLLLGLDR

`CC(C)c1[nH]nc2c(NCc3ccc(-c4ccccn4)cc3)nc(NCC(O)CN)nc12` (stereo not shown) [Compound 45] was tested, and the IC50 [1] was 0.54 µM, the “expression of tumor suppressor protein p53 (immunoblot)” value (p53) was “rapidly increased the expression” and the IC50 (CDK5/p35) was 0.017 µM. For the same molecule, the “effect on the cell cycle of MCF7” value [2] was “potently arrested cells in S, G2 and M phases”, the “caspase-3/7 activity in HCT116 cells” value [3] was “potent dose-dependent activation of the caspases in nanomolar concentrations” and the IC50 [4] was 0.2 µM. For the same molecule, the IC50 [5] was 0.7 µM.
